Several values for one entry are separate records, joined by “and”; a condition that tells them apart may be missing. Identical values can stand only once. Counter-ions that a name gives are not always drawn. Like-named read-outs stand apart in the source and are kept apart here.
Assays:
[1] = system: mouse's leaching cell solution (abdominal cavity cells), histamine release by 48/80 compound; test: Drug inhibiting effect on histamine leaching from mouse abdominal cavity cells treated with 48/80 compound; assay type: cell-based; details: testing drug 100 μg/ml; for inhibition at 100 µg/mL: Mus musculus
Experimental: This is a comparative testing for drug depressing effect on the amount of leaching histamines when is treated with 48/80 (Sigma, St. MO, USA) compound.
(1). Preparation of Leaching Cell Solution from Mouse Body.
A mouse is killed and bloodletting. Then 10 ml of Locke's solution containing 0.1% bovine serum protein is injected into its abdominal cavity. After abdominal cavity being light massaged, the cavity is cut and the Locke's solution is removed. Cavity is washed with another 5 ml of Locke's solution, and this washed solution is added to the latter one. This combined solution is centrifuged at 600 rpm for 5 minutes. The sediments are washed with 5 ml of cool Locke's solution. Adding 3 ml of cold Locke's solution to the washed sediments, then a leached cell solution of abdominal cavity is obtained. (The composition of Locke's solution is: NaCL […], KCL 0.2%, CaCL2 0.15%, glucose 1.0%, in w/v, and the rest distillated water.)
(2). Drug Inhibiting Effect on the Amount of Leaching Histamines when Treated with 48/80 Compound.
1.0 ml of each of those solutions in last term is mixed with 0.3 ml of mouse's leaching cell solution and 0.5 ml of Locke's solution. This mixture is cultivated at 37° C. for 5 minutes. Then adding 0.2 ml of Locke's solution of 48/80 compound (1 mg/100 ml) and cultivated at 37° C. for 10 minutes. Then the reaction is stopped by cooling, and centrifuged at 2,500 rpm for 10 minutes. 1.7 ml of decanted solution and 0.3 ml of sediments are obtained.
0.1 ml of water and 0.2 ml of 100% trichloroacetic acid are added to the decanted solution. 1.5 ml of Locke's solution and 0.2 ml of 100% trichloroacetic acid are added to the sediments washed solution. They are cultivated at room temperature for 30 minutes. After cultivation, the mixtures are centrifuged at 3,000 rpm for 15 minutes, respectively. 0.35 ml of each of the former two solutions is sampled. In each sample, 1.65 ml of water, 0.4 ml of 1N NaOH and 0.1 ml of 0.5% OPT (o-phthalic aldehyde) in methanol are added and cultivated at room temperature for 4 minutes. The reaction is stopped by adding 0.2 ml of 2M citric acid. And finally, determine the amount of released histamines in the tested solution by fluorescence method. By the analysis, results of the inhibiting rate of histamines could be calculated.
Locke's solution is instead of each drug in control group, and instead of both drug and 48/80 compound solution in blank group.
The histamine releasing rate (A) can be calculated by following equation. […] Where (Hs) is the total amount of histamine in the decanted solution, and (Hr) is the total amount of histamine in the sediment. (A)=[(Hs)/{(Hs)+(Hr)}]×100%. Then the inhibiting rate is:
=100−[(A−A in blank group)/(A−A in control group)]×100%.

mice = test: Anti-delayed type allergy reaction, oxazolone ear inflammation; assay type: in vivo, mouse; details: drug 2.0 w/v % in oxazolone acetone solution, 10 μl on right ear, 24 hr; for Inhibiting rate (%) (adding 0.1 w/v % of drug): with 0.1 w/v % of caffeine; for Inhibiting rate (%) (non-caffeine added): without caffeine
Experimental: The weights of testing mice are ranging from 20 g to 30 g. They are coated with 0.1 ml of oxazolone alcohol solution (0.5 w/v %) on the hair cleaned part of abdomen. […] After 24 hr, the mouse is killed by ether and punched a circle area of a diameter of 5.5 mm on both right and left ears in corresponding part by a puncher machine (portions of drug coated and the blank). The punched portions are weighed and the inflammation rates calculated. The control group are coated only with the oxazolone acetone solution (0.5 w/v %). The inflammation inhibiting rates of each drug are calculated by following equation: Inflammation inhibiting rate (%)=[(weight of drug-coated right ear)−(weight of non-drug-coated left ear)]×100%/(weight of non-drug-coated left ear)

person = test: Tests for increase the ability of learning and memory; assay type: in vivo, human; details: three pieces of 600 mg, average of four tests before and after ingesting; for change in vivo at 1800 mg: Homo sapiens, po, read-out: Increase rate (%) of memory ability
Experimental: A person administrates see a random series of 100 numbers, typed by PC, for 10 minutes and memory it. Then recite and write down the memorized number series. To check the recited series with the original one to see how many numbers are correct. In each testing at least has 10 minutes interval, and repeat four times. […] Each kind of drugs testing is done in half day, morning or afternoon only. The testing results were counted by one correct number for one point. Make the average value of four times testing of before and after drug ingesting, respectively. The increase of learning or memory ability is calculated by following equation and listed in Table 14: Rate of increase of memory ability=[(average value of four time testing before ingesting drug)−(average value of four times testing after ingesting drug)]×100%/(average value of four time testing before ingesting drug)

[2] = system: patients with toothache caused by a crowned tooth swelling; test: Analgesia and suppuration for tooth; assay type: in vivo, human; details: 2 g every two hours
From the text: It is not a best method in treating a toothache caused by a crowned tooth swelling that the ill tooth must be extracted or the crown must be destructed first. […] About 8 and 10 days were needed to suppurate and recovery completely when they could chew again. This method can keep the ill tooth without extraction.

[3] = adding 5% of coffee extract, read-out: inhibiting rate (%) (adding 5% of coffee extract)
[4] = non adding coffee extract, read-out: Inhibiting rate (%) (non adding coffee extract)

Structure (SMILES) | inhibition at 100 µg/mL [1, 3] [%] | inhibition at 100 µg/mL [1, 4] [%] | Inhibiting rate (%) (adding 0.1 w/v % of drug) (mice) | Inhibiting rate (%) (non-caffeine added) (mice) | change in vivo at 1800 mg (person) [%] | Days needed to suppurate and recovery completely ([2]; one value per patient) | Toothache pain ([2]; two patients) | inhibiting rate (%) (adding 5% of coffee extract) ([1]; adding 5% of coffee extract) | Inhibiting rate (%) (non adding coffee extract) ([1]; non adding coffee extract) | Increase rate (%) of memory ability (person) [%]
O=C(O)CC(O)(CC(=O)O)C(=O)O [Citric acid] | 100 | 100 | 100 | 100 | 360 |  |  |  |  | 
O=C(O)C(O)C(O)C(=O)O (stereo not shown) [Tartaric acid] | 100 | 100 | 99 | 97 | 305 |  |  |  |  | 
O=C(O)/C=C/C(=O)O [Fumaric acid] | 100 | 100 | 100 | 98 | 300 |  |  |  |  | 
O=C(O)CC(O)C(=O)O (stereo not shown) [Malic acid] | 100 | 100 | 100 | 96 | 315 | About 8 days and ~10 days | pains were killed |  |  | 
CC(O)C(=O)O (stereo not shown) [Lactic acid] | 100 | 100 | 98 | 97 | 280 |  |  |  |  | 
O=C(O)CCC(=O)C(=O)O [keto-glutaric acid] |  |  |  |  |  |  |  | 100 | 100 | 321
O=C(O)CO [α-hydroxy ethanoic acid] |  |  |  |  |  |  |  | 100 | 100 | 300
CN(C)CCOC(c1ccccc1)c1ccccc1 [Diphenhydramine hydrochloride, reference compound] | 50.4 | 32.1 | 20 | 20 |  |  |  |  |  | 
